# Test results: PMC11091220, “Metabolism-driven in vitro/in vivo disconnect of an oral ERɑ VHL-PROTAC” (Communications Biology, 2024)
# “And” between values parts separate entries of the source, which are not always exact repeats. Equal values may be shown once.
# Assays:
# ERα [1] = target: T1, ERα (Homo sapiens, UniProt P03372); assay: Western blot analysis of ERα in MCF7 cells (dose response, MG132, VHL ligand and cpd 8 competition); format: cell-based; conditions: MCF7
# T1 construct: endogenous in cells; host or cells: MCF7 (also MCF7 engineered to express Cas9)
# T1 sequence (P03372 1-595): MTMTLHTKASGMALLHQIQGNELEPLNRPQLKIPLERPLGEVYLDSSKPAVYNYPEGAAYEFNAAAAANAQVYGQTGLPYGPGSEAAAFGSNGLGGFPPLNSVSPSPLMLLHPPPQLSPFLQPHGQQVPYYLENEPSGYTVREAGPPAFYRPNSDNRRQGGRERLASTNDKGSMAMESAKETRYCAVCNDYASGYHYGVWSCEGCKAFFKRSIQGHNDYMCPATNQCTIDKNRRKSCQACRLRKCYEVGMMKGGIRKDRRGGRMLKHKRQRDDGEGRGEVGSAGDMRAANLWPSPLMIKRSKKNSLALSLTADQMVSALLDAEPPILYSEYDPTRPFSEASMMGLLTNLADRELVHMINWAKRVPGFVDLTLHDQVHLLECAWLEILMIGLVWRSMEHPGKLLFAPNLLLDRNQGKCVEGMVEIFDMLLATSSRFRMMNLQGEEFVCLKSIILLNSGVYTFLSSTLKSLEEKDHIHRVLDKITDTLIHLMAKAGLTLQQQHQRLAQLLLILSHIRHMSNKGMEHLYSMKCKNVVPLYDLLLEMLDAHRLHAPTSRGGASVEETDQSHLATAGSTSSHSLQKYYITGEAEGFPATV
# Procedure: Fig. 2 AZ’6421 degrades ERα through a PROTAC mechanism of action. a Immunoblots for ERα and vinculin loading control. MCF7 cells were pre-treated with 10 µM MG132 or DMSO control for 1 h before being exposed to DMSO, AZ’6421, or fulvestrant, at the concentrations indicated, for a further 7 h. A representative immunoblot from two biological replicates is shown. b As in a but cells were pre-treated with 10 µM VHL ligand (Ac-(S,R,S)-AHPC) prior to addition of DMSO, AZ’6421 or fulvestrant. c MCF7 cells expressing BFP-Cas9 were reverse transfected with the crRNA:tracrRNA pool targeting VHL for 72 h prior to treatment with increasing concentrations of AZ’6421 for a further 24 h. Cells were then fixed, stained, and imaged to assess ERα and Cas9 expression. ERα levels in Cas9 positive cells were normalised to unedited cells (0) and ESR1 KO cells (-100). Data points are from three independent experiments, points in bold represent the mean. d Structure of AZ’6421 and the (S)-prolinol epimer, 7. e Concentration-response curves for AZ’6421 and 7. ERα levels in MCF7 cells were assessed using an immunofluorescence endpoint after 24 h exposure to compound. […] Data points are from 5 (AZ'6421) or 2 (Cpd 7) independent experiments with technical duplicates performed for each experiment, bold points represent the mean. All concentration-response curves were plotted using nonlinear regression analysis in GraphPad Prism.
# Fig. 6 Assessment of the cause of the in vitro/in vivo disconnect. a CTC174 tumours were disaggregated into single cells, seeded in 6-well plates and dosed with increasing concentrations of AZ’6421 for 24 hours before being lysed. ERα levels were assessed by immunoblotting. ERɑ levels normalised to vinculin and expressed as % DMSO control are shown underneath the immunoblot. b Representative IHC images taken from sections of tumour treated with vehicle control or 100 mg/kg AZ’6421 for 4 days. Sections were stained with an antibody against ERα (Sp1, Ventana). c Schematic of potential sites of metabolism d Free plasma exposure of AZ’6421 and its metabolite 8 following 100 mg/kg dosing of AZ’6421. e Concentration-response curves for AZ’6421 and metabolite 8. ERα levels in MCF7 cells were assessed using an immunofluorescence endpoint after 24 h exposure to compound. […] Points in bold represent the mean. f Effect of metabolite 8 on ERα degradation in CTC174 cells cultured ex vivo. […] MCF7 cells were pre-treated with 10 µM cpd 8 or DMSO control for 1 h before being exposed to DMSO, AZ’6421 or fulvestrant, at the concentrations indicated, for a further 24 h. A representative immunoblot from two biological replicates is shown. TEXT PRINTED IN THE PICTURE: (a) AZ'6421: ERα % of DMSO control: 20.3 (1 nM); ERα % of DMSO control: 12.0 (10 nM); ERα % of DMSO control: 4.1 (30 nM); ERα % of DMSO control: 4.2 (100 nM); ERα % of DMSO control: 3.9 (300 nM); ERα % of DMSO control: 3.6 (1000 nM)
# (§1) Cells were seeded into 12-well tissue culture-treated plates at 0.5 x 10^6 cells/well in phenol red-free RPMI containing 5% (v/v) charcoal-stripped FBS (F6765, Sigma) and left to adhere overnight. In experiments to detect agonism or for SILAC experiments, FBS was double stripped using activated charcoal. Cells were treated with compound or 0.1% DMSO vehicle control for the times indicated prior to being lysed in Pierce RIPA buffer (Thermo Scientific), supplemented with protease and phosphatase inhibitors. Expression levels of proteins were determined by standard western blotting techniques (BioRad 4%-12% Bis-Tris gels). Antibodies were diluted in 5% milk-PBS-Tween and protein levels were detected using Pierce WestDura chemiluminescent reagents followed by visualisation and quantification on a Syngene ChemiGenius Imager. Where blots were quantified, protein levels were normalised to beta-actin or vinculin control and expressed as % of vehicle control.
# ERα [2] = target: T1, ERα; assay: SILAC pulse-chase and mass spectrometry, ERα turnover in MCF7 cells; format: cell-based; conditions: 1 µM
# Procedure: MCF7 cells were grown for a minimum of 2 passages in SILAC media (Pierce, Thermo Scientific) containing ^13C6^15N4 arginine and ^13C6 lysine. The extent of stable isotope incorporation was determined by mass spectrometry. For the assay, cells were plated at 1.2 x 10^6 cells/well into 6-well TC-treated plates in media containing 5% double charcoal stripped FBS^13,C6^15N4 arginine and ^13C6^15N2 lysine for 24 hours. At time 0, the media containing isotopically heavy arginine and lysine was replaced with media containing unlabelled equivalents plus either AZ’6421, fulvestrant or DMSO control. […] Equal concentrations of timecourse lysates were mixed with an internal standard lysate derived from ^[…] lysine labelled MCF7 cells. ER protein was immunoprecipitated overnight at 4 °C with an ER antibody (Rabbit clone SP1, Thermo Scientific) and immobilised onto a U-bottomed Nunc MaxiSorp plate (Thermo Scientific). Wells were sequentially washed with each of the following; RIPA buffer, PBS and water. Samples were digested by addition of 30 μL well sequencing grade trypsin (Promega) in 50 mM ammonium bicarbonate at 37 °C for a minimum of 16 hours. The resultant peptide samples were acidified and analysed by selected reaction monitoring (SRM) mass spectrometry. Protein half-life was determined using the one-phase exponential decay function in GraphPad PRISM where Y = (Y0 - Plateau)*exp(-K*X) + Plateau.
# ERα [3] = target: T1, ERα; assay: Hypoxia studies, ERα degradation in MCF7 cells; format: cell-based; conditions: 100 nM
# Procedure: MCF7 cells were seeded into 12-well tissue culture-treated plates at 0.5x10^6 cells/well in phenol red-free RPMI media containing 5% (volume/volume [v/v]) charcoal-stripped FBS (F6765, Sigma) and left to adhere overnight. The hypoxia-treated plates were transferred to a Thermo Heracell 150 Tri-gas Incubator set at 2% O2 and allowed to equilibrate to the lower oxygen level overnight. Cells were treated with compound or 0.1% DMSO vehicle control for 48 hours prior to being lysed in Pierce RIPA buffer (Thermo Scientific), supplemented with protease and phosphatase inhibitors. Lysis was carried out immediately after removal from the Tri-gas incubator to prevent the rapid degradation of HIF1α on re-exposure to the higher oxygen levels. Protein expression was determined by standard western blotting procedures as described above.
# PR expression = assay: ER agonism: PR expression in Ishikawa cells by western blot; format: cell-based
# Procedure: Fig. 8 Evidence of ER agonism of AZ’6421 and compound 8 in vitro and in vivo. a 100 nM compound or 10 nM estradiol (E2) were incubated with Ishikawa cells for 48 h and lysates measured for PR expression by western blot. b Normalised rat uterine weight shown as % change from respective vehicle control after 4 days dosing. c Representative H&E stained images taken from sections of uterine horn after 4 days of dosing. d Total plasma exposure of AZ’6421 and its metabolite 8 following dosing of 100 mg/kg BID or 30 mg/kg BID AZ’6421. Plasma samples were taken 4 hr after the 4th dose, at the same time as the uterus was weighed and sectioned for H&E staining.
# as §1
# uterus = assay: Immature female rat model, uterine weight and histology; format: in vivo
# Text: Some endocrine therapies, such as tamoxifen, have been reported to display weak agonistic activity in the endometrium due to altered cofactor recruitment and subsequent activation of gene transcription. We therefore sought to test whether AZ’6421 was a complete antagonist or could act as a partial agonist, in both in vitro and in vivo models. […] Plasma samples were taken 4 hr after the 4th dose, at the same time as the uterus was weighed and sectioned for H&E staining. To further explore whether AZ’6421 may be acting as an agonist in vivo, morphological changes of the uterine were examined: uterine horns were formalin-fixed paraffin-embedded, stained with haematoxylin and eosin and then transverse sections of uterus examined.
SMILES,"effect of MG132 pre-treatment on ERα degradation (ERα [1]; 10 µM MG132 1 h, then compound 7 h)","effect of excess acetylated-(S,R,S)-AHPC pre-treatment on ERα degradation (ERα [1]; 10 µM VHL ligand)","% heavy (ERα heavy peptide) (ERα [2]; Time 0, MCF7)",% heavy (ERα heavy peptide) (ERα [2]; Time 0.5),% heavy (ERα heavy peptide) (ERα [2]; Time 1),% heavy (ERα heavy peptide) (ERα [2]; Time 2),% heavy (ERα heavy peptide) (ERα [2]; Time 4),% heavy (ERα heavy peptide) (ERα [2]; Time 7),% heavy (ERα heavy peptide) (ERα [2]; Time 24),% heavy (ERα heavy peptide) (ERα [2]; Time 48),ERa levels (% of vehicle control) (ERα [3]; Hypoxic),ERa levels (% of vehicle control) (ERα [3]; Normoxic),"PR expression (% vs 10 nM E2) (PR expression; 100 nM compound, individual replicates)","PR expression in the Ishikawa endometrial cell line (PR expression; 100 nM, 48 h)","Uterine weight normalised to body weight (% vehicle) (uterus; 5 mg/kg, individual animals)","uterine epithelium morphology (H&E) (uterus; immature female rat, 4 days dosing)"
"C[C@]12CC[C@@H]3c4ccc(O)cc4C[C@@H](CCCCCCCCC[S+]([O-])CCCC(F)(F)C(F)(F)F)[C@H]3[C@@H]1CC[C@@H]2O (stereo partly shown) [fulvestrant, reference compound]",attenuated ERα degradation,had no effect,100.0%,39.1% and 49.6% and 42.4%,29.7% and 37.1% and 33.5%,20.8% and 29.3% and 28.1%,10.9% and 15.5% and 18.5%,5.3% and 6.8% and 7.7%,4.3% and 6.1%,4.6% and 6.1% and 3.9%,5.829%,10.860%,,,,
"C[C@@H]1Cc2c([nH]c3ccccc23)[C@@H](c2c(F)cc(/C=C/C(=O)O)cc2F)N1CC(C)(C)F [AZD9496, (E)-3-(3,5-Difluoro-4-((1R,3R)-2-(2-fluoro-2-methylpropyl)-3-methyl-2,3,4,9-tetra hydro-1H-pyrido[3,4-b]indol-1-yl)phenyl)acrylic Acid, reference compound]",,,,,,,,,,,,,5.08% and 7%,induced PR expression,178.44% and 156.17% and 157.43% and 195.46% and 128.27%,low columnar uterine epithelium
